From the supplement of paper PMC10307832

Assays:
Test in all cases: relative viability (nuclei count vs DMSO), 5 days (fraction); higher = more cells survive
COR-L 105 = system: COR-L 105
Procedure, shortened: (§1)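 Lung cancer cell lines, seeded in 1536-well plates, were treated the following day by pin tool with a single drug or with five library-drug doses (not always all listed) in √10 steps on top of a fixed anchor-drug dose. Cells were fixed and nuclei stained in one step after 5 days, and nuclei were counted. Relative viability is the nuclei count for treated wells divided by that for vehicle wells, reported as medians of duplicate plates.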

NCI-H1755 = system: NCI-H1755
Procedure, shortened: as §1

SK-MES-1 = system: SK-MES-1
Procedure, shortened: as §1

NCI-H2023 = system: NCI-H2023
Procedure, shortened: as §1

NCI-H1792 = system: NCI-H1792
Procedure, shortened: as §1

COR-L23 = system: COR-L23
Procedure, shortened: as §1

NCI-H2009 = system: NCI-H2009
Procedure, shortened: as §1

NCI-H358 = system: NCI-H358
Procedure, shortened: as §1

PC-14 = system: PC-14
Procedure, shortened: as §1

LC-2-ad = system: LC-2-ad
Procedure, shortened: as §1

NCI-H2347 = system: NCI-H2347
Procedure, shortened: as §1

EMC-BAC-2 = system: EMC-BAC-2
Procedure, shortened: as §1

NCI-H23 = system: NCI-H23
Procedure, shortened: as §1

NCI-H1793 = system: NCI-H1793
Procedure, shortened: as §1

NCI-H1437 = system: NCI-H1437
Procedure, shortened: as §1

NCI-H650 = system: NCI-H650
Procedure, shortened: as §1

201T = system: 201T
Procedure, shortened: as §1

HCC-366 = system: HCC-366
Procedure, shortened: as §1

NCI-H1395 = system: NCI-H1395
Procedure, shortened: as §1

NCI-H1915 = system: NCI-H1915
Procedure, shortened: as §1

HCC-15 = system: HCC-15
Procedure, shortened: as §1

CCNC(=O)c1noc(-c2cc(C(C)C)c(O)cc2O)c1-c1ccc(CN2CCOCC2)cc1 [Luminespib] + C[C@]1(O)C[C@@H](c2nc(-c3ccc4ccc(-c5ccccc5)nc4c3)c3c(N)nccn32)C1 [Linsitinib] (partner 1 µM)
relative viability (COR-L 105; first compound 0.002 µM): 0.843
relative viability (COR-L 105; first compound 0.006325 µM): 0.811
relative viability (COR-L 105; first compound 0.02 µM): 0.991
relative viability (COR-L 105; first compound 0.06325 µM): 0.245
relative viability (COR-L 105; first compound 0.2 µM): 0.207
relative viability (NCI-H1755; first compound 0.002 µM): 0.974
relative viability (NCI-H1755; first compound 0.006325 µM): 0.944
relative viability (NCI-H1755; first compound 0.02 µM): 0.98
relative viability (NCI-H1755; first compound 0.06325 µM): 0.946
relative viability (NCI-H1755; first compound 0.2 µM): 0.921
relative viability (SK-MES-1; first compound 0.002 µM): 1
relative viability (SK-MES-1; first compound 0.006325 µM): 0.893
relative viability (SK-MES-1; first compound 0.02 µM): 1.13
relative viability (SK-MES-1; first compound 0.06325 µM): 0.916
relative viability (SK-MES-1; first compound 0.2 µM): 0.164
relative viability (NCI-H2023; first compound 0.002 µM): 0.652
relative viability (NCI-H2023; first compound 0.006325 µM): 0.575
relative viability (NCI-H2023; first compound 0.02 µM): 0.732
relative viability (NCI-H2023; first compound 0.06325 µM): 0.0892
relative viability (NCI-H2023; first compound 0.2 µM): 0.0832
relative viability (NCI-H1792; first compound 0.002 µM): 0.444
relative viability (NCI-H1792; first compound 0.006325 µM): 0.469
relative viability (NCI-H1792; first compound 0.02 µM): 0.212
relative viability (NCI-H1792; first compound 0.06325 µM): 0.297
relative viability (NCI-H1792; first compound 0.2 µM): 0.106
relative viability (COR-L23; first compound 0.002 µM): 0.946
relative viability (COR-L23; first compound 0.006325 µM): 0.811
relative viability (COR-L23; first compound 0.02 µM): 1.03
relative viability (COR-L23; first compound 0.06325 µM): 0.0654
relative viability (COR-L23; first compound 0.2 µM): 0.0696
relative viability (NCI-H2009; first compound 0.002 µM): 1.21
relative viability (NCI-H2009; first compound 0.006325 µM): 1.2
relative viability (NCI-H2009; first compound 0.02 µM): 1.21
relative viability (NCI-H2009; first compound 0.06325 µM): 1.13
relative viability (NCI-H2009; first compound 0.2 µM): 0.0697
relative viability (NCI-H358; first compound 0.002 µM): 0.828
relative viability (NCI-H358; first compound 0.006325 µM): 0.654
relative viability (NCI-H358; first compound 0.02 µM): 0.649
relative viability (NCI-H358; first compound 0.06325 µM): 0.129
relative viability (NCI-H358; first compound 0.2 µM): 0.111
relative viability (PC-14; first compound 0.002 µM): 0.896
relative viability (PC-14; first compound 0.006325 µM): 0.897
relative viability (PC-14; first compound 0.02 µM): 1.09
relative viability (PC-14; first compound 0.06325 µM): 0.936
relative viability (PC-14; first compound 0.2 µM): 0.146
relative viability (LC-2-ad; first compound 0.002 µM): 0.887
relative viability (LC-2-ad; first compound 0.006325 µM): 0.806
relative viability (LC-2-ad; first compound 0.02 µM): 0.808
relative viability (LC-2-ad; first compound 0.06325 µM): 0.165
relative viability (LC-2-ad; first compound 0.2 µM): 0.129
relative viability (NCI-H2347; first compound 0.002 µM): 1.03
relative viability (NCI-H2347; first compound 0.02 µM): 0.824
relative viability (NCI-H2347; first compound 0.06325 µM): 0.924
relative viability (NCI-H2347; first compound 0.2 µM): 0.404
relative viability (EMC-BAC-2; first compound 0.002 µM): 0.793
relative viability (EMC-BAC-2; first compound 0.006325 µM): 0.783
relative viability (EMC-BAC-2; first compound 0.02 µM): 0.665
relative viability (EMC-BAC-2; first compound 0.06325 µM): 0.788
relative viability (EMC-BAC-2; first compound 0.2 µM): 0.901
relative viability (NCI-H23; first compound 0.002 µM): 0.674
relative viability (NCI-H23; first compound 0.006325 µM): 0.55
relative viability (NCI-H23; first compound 0.02 µM): 0.355
relative viability (NCI-H23; first compound 0.06325 µM): 0.172
relative viability (NCI-H23; first compound 0.2 µM): 0.136
relative viability (NCI-H1793; first compound 0.002 µM): 0.831
relative viability (NCI-H1793; first compound 0.006325 µM): 0.798
relative viability (NCI-H1793; first compound 0.02 µM): 0.326
relative viability (NCI-H1793; first compound 0.06325 µM): 0.16
relative viability (NCI-H1793; first compound 0.2 µM): 0.147
relative viability (NCI-H1437; first compound 0.002 µM): 1.06
relative viability (NCI-H1437; first compound 0.006325 µM): 0.989
relative viability (NCI-H1437; first compound 0.02 µM): 1.08
relative viability (NCI-H1437; first compound 0.06325 µM): 0.22
relative viability (NCI-H1437; first compound 0.2 µM): 0.0998
relative viability (NCI-H650; first compound 0.002 µM): 0.917
relative viability (NCI-H650; first compound 0.006325 µM): 0.888
relative viability (NCI-H650; first compound 0.02 µM): 0.497
relative viability (NCI-H650; first compound 0.06325 µM): 0.0891
relative viability (NCI-H650; first compound 0.2 µM): 0.117
relative viability (201T; first compound 0.002 µM): 1.03
relative viability (201T; first compound 0.006325 µM): 0.988
relative viability (201T; first compound 0.02 µM): 0.872
relative viability (201T; first compound 0.06325 µM): 1.08
relative viability (201T; first compound 0.2 µM): 1.01
relative viability (HCC-366; first compound 0.002 µM): 0.56
relative viability (HCC-366; first compound 0.006325 µM): 0.696
relative viability (HCC-366; first compound 0.02 µM): 0.462
relative viability (HCC-366; first compound 0.06325 µM): 0.0199
relative viability (HCC-366; first compound 0.2 µM): 0.0167
relative viability (NCI-H1395; first compound 0.002 µM): 1.06
relative viability (NCI-H1395; first compound 0.006325 µM): 1.02
relative viability (NCI-H1395; first compound 0.02 µM): 0.759
relative viability (NCI-H1395; first compound 0.06325 µM): 0.772
relative viability (NCI-H1395; first compound 0.2 µM): 0.326
relative viability (NCI-H1915; first compound 0.002 µM): 1.12
relative viability (NCI-H1915; first compound 0.006325 µM): 1.09
relative viability (NCI-H1915; first compound 0.02 µM): 1.02
relative viability (NCI-H1915; first compound 0.06325 µM): 1.11
relative viability (NCI-H1915; first compound 0.2 µM): 1.05
relative viability (HCC-15; first compound 0.002 µM): 0.837
relative viability (HCC-15; first compound 0.006325 µM): 0.873
relative viability (HCC-15; first compound 0.02 µM): 0.929
relative viability (HCC-15; first compound 0.06325 µM): 0.57
relative viability (HCC-15; first compound 0.2 µM): 0.519
